# Assay results reported in publication PMC9532399, “The lysosomal transporter TAPL has a dual role as peptide translocator and phosphatidylserine floppase” (Nature Communications, 2022).
# Molecular target: T1, mouse TAPL ΔTMD0 (Mus musculus, UniProt Q9JJ59)
# T1 construct: thrombin cleavage site (C); eGFP (C); 10XHis (C); made in house; host or cells: Trichoplusia ni High Five (Hi5) insect cells, baculovirus (pVL1393)
# T1 sequence (Q9JJ59 143-762): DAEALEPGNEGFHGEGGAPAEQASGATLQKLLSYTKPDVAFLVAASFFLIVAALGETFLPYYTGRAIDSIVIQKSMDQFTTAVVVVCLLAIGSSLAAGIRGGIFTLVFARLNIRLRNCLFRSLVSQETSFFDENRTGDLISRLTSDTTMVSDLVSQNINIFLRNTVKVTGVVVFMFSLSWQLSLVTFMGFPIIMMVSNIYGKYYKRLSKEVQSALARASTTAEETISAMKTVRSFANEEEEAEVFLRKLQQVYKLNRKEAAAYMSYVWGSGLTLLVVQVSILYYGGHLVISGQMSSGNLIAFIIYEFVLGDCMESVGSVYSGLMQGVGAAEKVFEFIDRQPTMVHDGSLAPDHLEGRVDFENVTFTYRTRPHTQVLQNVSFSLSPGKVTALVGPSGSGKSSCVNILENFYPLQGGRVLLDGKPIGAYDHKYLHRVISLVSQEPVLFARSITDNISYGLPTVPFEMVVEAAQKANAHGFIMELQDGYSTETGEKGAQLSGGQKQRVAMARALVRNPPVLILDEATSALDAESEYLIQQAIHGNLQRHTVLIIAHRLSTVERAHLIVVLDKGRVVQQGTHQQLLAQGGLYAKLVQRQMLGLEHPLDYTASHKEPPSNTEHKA
# Experiment: Dithionite-based flip-flop (floppase) assay of NBD*-labeled lipids, ΔTMD0 proteoliposomes
# Assay type: biochemical
# Conditions: for fluorescence remaining after dithionite: 10 mM dithionite
# Protocol: All lipids used in reconstitution were purchased from Avanti Polar Lipids, Inc. (purity > 99%). The in vitro flip–flop assay was performed using NBD* dye-labeled proteoliposomes as described previously. Briefly, E. coli polar lipids and egg PC were mixed in a 1:1 molar ratio, and 0.5% (mol/mol) NBD*-lipid was added. The lipid mixture was then dried under nitrogen gas. The NBD*-lipids used were 18:1-06:0 NBD*-PS (1-oleoyl-2-{6-[(7-nitro-2-1,3-benzoxadiazol-4-yl)amino]hexanoyl}-sn-glycero-3-phosphoserine), 18:1-06:0 NBD*-PC (1-oleoyl-2-{6-[(7-nitro-2-1,3-benzoxadiazol-4-yl)amino]hexanoyl}-sn-glycero-3-phosphocholine), 18:1-06:0 NBD*-PG (1-oleoyl-2-{6-[(7-nitro-2-1,3-benzoxadiazol-4-yl)amino]hexanoyl}-sn-glycero-3-[phospho-rac-(1-glycerol)]), 18:1-06:0 NBD*-PE (1-oleoyl-2-{6-[(7-nitro-2-1,3-benzoxadiazol-4-yl)amino]hexanoyl}-sn-glycero-3-phosphoethanolamine), and 25-NBD*-Cholesterol (25-[N-[(7-nitro-2-1,3-benzoxadiazol-4-yl)methyl]amino]−27-norcholesterol). Thin lipid films were solubilized in 20 mM HEPES–NaOH pH 8.0, 200 mM NaCl and 5% (v/v) glycerol, incubated at RT for 30 min and subjected to 5 freeze–thaw cycles. After extrusion with a Mini-Extruder at 65 °C, final lipid concentrations were determined by phosphorus assays. Briefly, 10 μL of extruded lipid was added to 10 μL of 2% (w/v) ammonium molybdate and 300 μL of concentrated perchloric acid. The mixture was heated at 250 °C for 30 min, then cooled to RT and mixed with 1.5 mL of 0.4% (w/v) ammonium molybdate and 250 μL of 9% (w/v) L-ascorbic acid. It was again heated at 100 °C for 6 min and cooled to RT. Lipid concentrations were calculated from the absorbance at 820 nm using a standard curve prepared with NaH2PO4 solution. After accurately determining the lipid concentration, DM-purified protein and 5 mM lipid suspension (solubilized in 5 mM DM) were mixed 1:25 (w/w). After incubation at 4 °C for 1.5 h, DM detergent was removed with 75 mg Bio-beads SM-2 by periodic gentle shaking for 1 h at 4 °C (Supplementary Fig. 5a). The beads were replaced once, followed by an additional incubation at 4 °C for 2 h to completely remove detergent. The resulting proteoliposomes were collected by ultracentrifugation at 200,000×g for 1.5 h at 4 °C.
# To measure the flip–flop activity, 10 μL of 2 mM NBD*-labeled proteoliposomes were added to 100 μL of reaction buffer (20 mM HEPES–NaOH pH 8.0, 200 mM NaCl, 5 mM ATP and 5% (v/v) glycerol) in the presence of 2 mM MgCl2 (or NaCl), and incubated at 37 °C for 1 h. The mixture was transferred to a 96-well plate and time-dependent fluorescence (λex/λem = 460/538 nm) was recorded every 30 s for 26 min using a fluorescence spectrophotometer (Gemini XPS). After the baseline fluorescence had stabilized, 10 mM sodium dithionite was added to quench the fluorescence of NBD*-lipid present in the outer leaflets of the liposomes. The initial rapid drop and subsequent slow decline in fluorescence intensity were monitored. When a new steady state was established, 1% (v/v) Triton X-100 was added to completely disrupt the liposomes. The net percentage of NBD*-lipid translocated across the lipid bilayer was calculated from the following equation[72]: the percentage of protected NBD*-lipid in the inner leaflet = [(FD−F0)/(FT−F0)]×100, and that of accessible NBD*-lipid in the outer leaflet = [(FT−FD)/(FT−F0)]×100, where FT is the total fluorescence of the sample before the addition of dithionite, FD is the fluorescence of the sample after quenching with dithionite, and F0 is any residual fluorescence of the sample after solubilization with Triton X-100. Fluorescence values (FT, FD, F0) were calculated as the averages of 5 points on the respective plateau lines. The ΔTMD0-mediated lipid floppase activity was determined by subtracting the percentage of NBD*-lipid fluorescence measured in the presence of Na^+/ATP from that measured in the presence of Mg^2+/ATP.
compound,measurement,setting,value
"CCCCCCCC/C=C\CCCCCCCC(=O)OC[C@H](COP(=O)(O)OC[C@H](N)C(=O)O)OC(=O)CCCCCNc1ccc([N+](=O)[O-])c2nonc12 [NBD*-PS, 1-oleoyl-2-{6-[(7-nitro-2-1,3-benzoxadiazol-4-yl)amino]hexanoyl}-sn-glycero-3-phosphoserine]",difference of inner leaflet fluorescence with and without hydrolysable ATP,Mg2+/ATP minus Na+/ATP,~ 4.5%
same,NBD*-PS fluorescence intensity (net percentage transported outer to inner leaflet),"Mg2+/ATP minus Na+/ATP, 5 mM ATP, 37 °C 1 h, no peptide, no POPS, mean n=9",4.53%
same,NBD*-PS fluorescence intensity (net percentage transported),"Mg2+/ATP minus Na+/ATP, with 9-mer peptide, mean n=5",2.081%
same,NBD*-PS fluorescence intensity (net percentage transported),"Mg2+/ATP minus Na+/ATP, with 10% (mol/mol) POPS, mean n=5",2.6371%
same,fluorescence remaining after dithionite,"Mg2+/ATP, % of original value",~ 36.2%
same,ATP-dependent lipid transport by ΔTMD0,"NBD*-labeled lipid, PE, PG, PC and cholesterol data not shown",high
same,fluorescence remaining after dithionite,"Na+/ATP, % of original fluorescence",~ 31.7%
same,NBD*-PS fluorescence intensity (net percentage transported),"no peptide, no POPS, replicate I",5.0115%
same,NBD*-PS fluorescence intensity (net percentage transported),"no peptide, no POPS, replicate II",5.082%
same,NBD*-PS fluorescence intensity (net percentage transported),"no peptide, no POPS, replicate III",5.234%
same,NBD*-PS fluorescence intensity (net percentage transported),"no peptide, no POPS, replicate IV",3.911%
same,NBD*-PS fluorescence intensity (net percentage transported),"no peptide, no POPS, replicate IX",4.577%
same,NBD*-PS fluorescence intensity (net percentage transported),"no peptide, no POPS, replicate V",3.922%
same,NBD*-PS fluorescence intensity (net percentage transported),"no peptide, no POPS, replicate VI",4.247%
same,NBD*-PS fluorescence intensity (net percentage transported),"no peptide, no POPS, replicate VII",4.366%
same,NBD*-PS fluorescence intensity (net percentage transported),"no peptide, no POPS, replicate VIII",4.416%
same,NBD*-PS fluorescence intensity (net percentage transported),"with 9-mer peptide, replicate I",2.499%
same,NBD*-PS fluorescence intensity (net percentage transported),"with 9-mer peptide, replicate II",2.553%
same,NBD*-PS fluorescence intensity (net percentage transported),"with 9-mer peptide, replicate III",1.795%
same,NBD*-PS fluorescence intensity (net percentage transported),"with 9-mer peptide, replicate IV",1.566%
same,NBD*-PS fluorescence intensity (net percentage transported),"with 9-mer peptide, replicate V",1.9894%
same,NBD*-PS fluorescence intensity (net percentage transported),"with 10% (mol/mol) POPS, replicate I",2.817%
same,NBD*-PS fluorescence intensity (net percentage transported),"with 10% (mol/mol) POPS, replicate II",2.678%
same,NBD*-PS fluorescence intensity (net percentage transported),"with 10% (mol/mol) POPS, replicate III",2.164%
same,NBD*-PS fluorescence intensity (net percentage transported),"with 10% (mol/mol) POPS, replicate IV",2.878%
same,NBD*-PS fluorescence intensity (net percentage transported),"with 10% (mol/mol) POPS, replicate V",2.648%
same,true active floppase activity of the transporter,ΔTMD0 minus E664Q,~ 2.6%
"RRYQNSTC^5-IAFL [9-mer, 5-IAF-labeled peptide of 9 residues (RRYQNSTC^5-IAFL)]",effect on translocation of NBD*-PS,"10% (mol/mol) unlabeled POPS, or presence of the 9-mer peptide",inhibited
